The text below walks through data of patent publication US10760052B2, “Method of inhibiting tau phosphorylation” (priority 2012, dated 2020).

Like-named read-outs stand apart in the source and are kept apart here.

In this experiment the target is T1, mu opiate receptor (MOR) (Rattus norvegicus, UniProt P33535).
T1 construct: from tissue; host or cells: striatum (membrane preparation)
It counts as biochemical. The conditions noted are these: for MOR agonist activity ([35S]GTPγS binding), compound as agonist: preliminary study, average of two runs.

Setting [1] is: [35S]GTPγS binding to Gαo in striatal membranes, compound 0.1 μM.
[2] abbreviates: [35S]GTPγS binding to Gαo in striatal membranes, compound 1 μM.
Setting [3] is: [35S]GTPγS binding to Gαo in striatal membranes, compound 1 μM plus 1 μM β-funaltrexamine (MOR antagonist).
The mark [4] stands for this setting: 0.1 μM compound, striatal membranes, Series C-2.
Where [5] appears, read: 1 μM compound + 1 μM β-FNA (selective MOR antagonist), Series C-2.
Setting [6] is: 1 μM compound, striatal membranes, Series C-2.

T1 sequence (P33535 whole entry): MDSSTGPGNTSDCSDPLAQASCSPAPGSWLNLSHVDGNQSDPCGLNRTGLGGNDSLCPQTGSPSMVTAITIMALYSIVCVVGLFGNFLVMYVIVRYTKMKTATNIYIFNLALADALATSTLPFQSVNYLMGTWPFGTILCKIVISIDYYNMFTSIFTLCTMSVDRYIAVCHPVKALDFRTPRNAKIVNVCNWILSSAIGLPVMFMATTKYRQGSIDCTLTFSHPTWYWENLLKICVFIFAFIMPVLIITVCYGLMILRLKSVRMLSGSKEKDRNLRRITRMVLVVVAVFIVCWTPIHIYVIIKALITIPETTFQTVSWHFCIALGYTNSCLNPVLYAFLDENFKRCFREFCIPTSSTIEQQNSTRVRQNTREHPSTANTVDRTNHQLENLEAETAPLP

Consider `N#Cc1ccc(S(=O)(=O)N2CCC3(CC2)OCCN3S(=O)(=O)c2ccc(C#N)cc2)cc1` [Compound C0008], for which the “% DAMGO (0.1 μM)” value is on record as 41.4%, the “% DAMGO (1 μM)” value was found to be 72.9% and the “% DAMGO + BFNA” value came out at 4.4%. The “Concentration of FLNA-Binding Compound as Agonist 0.1 μM” value (shortened to “Concentration … as Agonist 0.1 μM”) under setting [1] worked out at 71.2%. Further, the “Concentration of FLNA-Binding Compound as Agonist 1 μM” value under setting [2] is 201.6%. Moreover, the “Concentration of FLNA-Binding Compound as Agonist 1 μM + BFNA” value (“Concentration … as Agonist 1 μM + BFNA” for short) under setting [3] is 2.8%.
For the molecule `CC(=O)c1ccc(S(=O)(=O)N2CCC3(CC2)OCC(CCCCN(C)C)N3S(=O)(=O)c2ccc(C(C)=O)cc2)cc1` (stereo not drawn) [Compound C0080M], the “% DAMGO (0.1 μM)” value is listed as 112.1%, the “% DAMGO (1 μM)” value was 92.4% and the “% DAMGO + BFNA” value is 351.8%. The “Concentration … as Agonist 0.1 μM” value under setting [1] amounted to 187.9%. Also, the “Concentration of FLNA-Binding Compound as Agonist 1 μM” value under setting [2] was 205.4%. Besides, the “Concentration … as Agonist 1 μM + BFNA” value under setting [3] was 167.1%.
Take `CC(=O)c1ccc(S(=O)(=O)N2CCC3(CC2)OCCN3S(=O)(=O)c2ccc(C(C)=O)cc2)cc1` [Compound C0011]: the “% DAMGO (0.1 μM)” value was determined as 126.8%, the “% DAMGO (1 μM)” value was 114.3%, the “% DAMGO + BFNA” value came to 36.5% and the “Concentration … as Agonist 0.1 μM” value amounted to 217.0%. Also, the “Concentration of FLNA-Binding Compound as Agonist 1 μM” value amounted to 305.0%; the “Concentration … as Agonist 1 μM + BFNA” value is listed as 19.0%; the “[35S]GTPγS binding, FLNA-Binding Compound as Agonist at 0.1 μM” value (“[35S]GTPγS binding … at 0.1 μM” for short) was determined as 217.0%; the “[35S]GTPγS binding, FLNA-Binding Compound as Agonist at 1 μM” value is recorded as 305.0%. For the same molecule, the “[35S]GTPγS binding, FLNA-Binding Compound as Agonist at 1 μM + BFNA” value (“[35S]GTPγS binding … at 1 μM + BFNA” for short) was determined as 19.0%.
On to `CC1CCC(C(C)C)C(OCC(O)CN2CCCC2=O)C1` (stereo not drawn) [Compound A0035], for which the “% DAMGO (0.1 μM)” value is 61.5%, the “% DAMGO (1 μM)” value turned out to be 57.5% and the “% DAMGO + BFNA” value is on record as 119.9%. Besides, under setting [1], the “Concentration … as Agonist 0.1 μM” value is on record as 120.6%. Further, under setting [2], the “Concentration of FLNA-Binding Compound as Agonist 1 μM” value is 158.8%. Besides, under setting [3], the “Concentration … as Agonist 1 μM + BFNA” value is 88.6%.
In the case of `CC1CN(CC(O)COc2ccc(Br)c(Cl)c2)CC(C)O1` (stereo not drawn) [Compound A0045], the “% DAMGO (0.1 μM)” value is reported as 73.3%, the “% DAMGO (1 μM)” value stood at 99.3% and the “% DAMGO + BFNA” value is 134.2%. For the same molecule, the “Concentration … as Agonist 0.1 μM” value under setting [1] is reported as 143.9%. Moreover, the “Concentration of FLNA-Binding Compound as Agonist 1 μM” value under setting [2] worked out at 274.2%. For the same molecule, under setting [3], the “Concentration … as Agonist 1 μM + BFNA” value came to 99.2%.
Consider `Cc1ccc(S(=O)(=O)N2CCOC23CCN(CC2CC2)CC3)cc1` [Compound C0134M], for which the “MOR agonist activity ([35S]GTPγS binding), compound as agonist” value by setting is: (0.1 μM) 150.7%; (1 μM + βNFA) 53.2%; (1 μM) 224.0%.
As to `CCN1CCC2(CC1)OCCN2S(=O)(=O)c1ccc(C(C)=O)cc1` [Compound C0094M], the “% DAMGO (0.1 μM)” value amounted to 100.2%, the “% DAMGO (1 μM)” value came out at 119.9% and the “% DAMGO + BFNA” value was 334.2%. Moreover, under setting [4], the “[35S]GTPγS binding … at 0.1 μM” value was found to be 172.5%. Besides, under setting [5], the “[35S]GTPγS binding … at 1 μM + BFNA” value is 115.3%. Under setting [6], the “[35S]GTPγS binding, FLNA-Binding Compound as Agonist at 1 μM” value came out at 263.5%.
With `CC(=O)c1ccc(S(=O)(=O)N2CC(CN(C)C)OC23CCNCC3)cc1` (stereo not drawn) [Compound C0118M], the “% DAMGO (0.1 μM)” value turned out to be 87.8%; the “% DAMGO (1 μM)” value stood at 105.4%; the “% DAMGO + BFNA” value is 163.3%; the “[35S]GTPγS binding … at 0.1 μM” value is listed as 166.2%. Moreover, the “[35S]GTPγS binding, FLNA-Binding Compound as Agonist at 1 μM” value amounted to 261.5% and the “[35S]GTPγS binding … at 1 μM + BFNA” value is given as 79.2%.
In the case of `COc1ccc(S(=O)(=O)N2CCC3(CC2)NCCO3)cc1` [Compound C0026], the “% DAMGO (0.1 μM)” value is 107.7%, the “% DAMGO (1 μM)” value was 105.6% and the “% DAMGO + BFNA” value worked out at 48.3%. For the same molecule, under setting [4], the “[35S]GTPγS binding … at 0.1 μM” value is 207.2%. Further, under setting [5], the “[35S]GTPγS binding … at 1 μM + BFNA” value is recorded as 21.2%. The “[35S]GTPγS binding, FLNA-Binding Compound as Agonist at 1 μM” value under setting [6] was 288.4%.
On to `O=S(=O)(c1ccc(C(F)(F)F)cc1Br)N1CCC2(CC1)OCCN2S(=O)(=O)c1ccc(C(F)(F)F)cc1Br` [Compound C0071], for which the “% DAMGO (0.1 μM)” value is 160.5%, the “% DAMGO (1 μM)” value worked out at 161.7% and the “% DAMGO + BFNA” value came to 513.3%. Also, under setting [1], the “Concentration … as Agonist 0.1 μM” value worked out at 276.3%. Under setting [2], the “Concentration of FLNA-Binding Compound as Agonist 1 μM” value amounted to 355.3%. In addition, under setting [3], the “Concentration … as Agonist 1 μM + BFNA” value was 177.1%.
For the molecule `CCN1CCC2(CC1)OCCN2S(=O)(=O)c1ccc(OC)cc1` [Compound C0089M], the “% DAMGO (0.1 μM)” value turned out to be 136.3%, the “% DAMGO (1 μM)” value amounted to 134.4% and the “% DAMGO + BFNA” value stood at 237.4%. Further, under setting [4], the “[35S]GTPγS binding … at 0.1 μM” value is on record as 234.5%. In addition, the “[35S]GTPγS binding … at 1 μM + BFNA” value under setting [5] worked out at 81.9%. For the same molecule, the “[35S]GTPγS binding, FLNA-Binding Compound as Agonist at 1 μM” value under setting [6] is 295.3%.
With `CC1CN(CC(O)COC2CCCCC2)CC(C)O1` (stereo not drawn) [Compound A0017], the “% DAMGO (0.1 μM)” value was 96.9%, the “% DAMGO (1 μM)” value is 100.4% and the “% DAMGO + BFNA” value was 187.9%. Further, under setting [1], the “Concentration … as Agonist 0.1 μM” value came to 161.9%. The “Concentration of FLNA-Binding Compound as Agonist 1 μM” value under setting [2] is 246.0%. Also, under setting [3], the “Concentration … as Agonist 1 μM + BFNA” value came out at 65.2%.
`COc1ccc(CCC(=O)CC2c3c(cc4c(c3OC)OCO4)CC[N+]2(C)C)cc1` (stereo not drawn) [Compound B0016]: the “% DAMGO (0.1 μM)” value worked out at 99.2%, the “% DAMGO (1 μM)” value was determined as 79.9% and the “% DAMGO + BFNA” value is on record as 109.4%. In addition, under setting [1], the “Concentration … as Agonist 0.1 μM” value amounted to 167.7%. Moreover, under setting [2], the “Concentration of FLNA-Binding Compound as Agonist 1 μM” value amounted to 213.6%. Besides, the “Concentration … as Agonist 1 μM + BFNA” value under setting [3] was found to be 72.2%.
Take `O=S(=O)(c1ccc2ccccc2c1)N1CCC2(CC1)OCCN2S(=O)(=O)c1ccc2ccccc2c1` [Compound C0140M]: the “% DAMGO (0.1 μM)” value was 85.8%, the “% DAMGO (1 μM)” value is 106.5% and the “% DAMGO + BFNA” value is on record as 211.2%. For the same molecule, the “Concentration … as Agonist 0.1 μM” value under setting [1] stood at 126.1%. In addition, under setting [2], the “Concentration of FLNA-Binding Compound as Agonist 1 μM” value worked out at 215.4%. In addition, the “Concentration … as Agonist 1 μM + BFNA” value under setting [3] was determined as 83.0%.
Take `COC(=O)c1ccc(S(=O)(=O)N2CCC3(CC2)OCCN3S(=O)(=O)c2ccc(C(=O)OC)cc2)cc1` [Compound C0028]: the “% DAMGO (0.1 μM)” value turned out to be 55.6%, the “% DAMGO (1 μM)” value worked out at 60.5% and the “% DAMGO + BFNA” value is given as 472.3%. Moreover, under setting [1], the “Concentration … as Agonist 0.1 μM” value was 93.9%. For the same molecule, under setting [2], the “Concentration of FLNA-Binding Compound as Agonist 1 μM” value is listed as 132.4%. Besides, the “Concentration … as Agonist 1 μM + BFNA” value under setting [3] came out at 78.4%.
For `Cc1ccccc1S(=O)(=O)N1CCC2(CC1)OCCN2S(=O)(=O)c1ccccc1C` [Compound C0015], the “% DAMGO (0.1 μM)” value is recorded as 78.5%, the “% DAMGO (1 μM)” value worked out at 78.9% and the “% DAMGO + BFNA” value was 193.0%. The “Concentration … as Agonist 0.1 μM” value under setting [1] came out at 138.7%. Moreover, the “Concentration of FLNA-Binding Compound as Agonist 1 μM” value under setting [2] came to 204.7%. The “Concentration … as Agonist 1 μM + BFNA” value under setting [3] was determined as 126.8%.
